Measured values reported in patent publication US20040266811A1, “Methods for inducing regeneration, remyelination, and hypermyelination of nervous tissue” (priority 2002, published 2004).
“Also recorded” adds a separate entry of the source.

Tested on: SCIP and Brn-5 expression in Schwann cells
Assay: RNA (Northern) blot for SCIP and Brn-5 in Schwann cells
Assay type: cell-based, Sprague-Dawley rats
Conditions: 1 μM GM-284, 48 h, growth-factor-starved Schwann cells
Description: To further assess the ability of GM-284 to regulate these genes, Schwann cells were maintained in DMEM containing FCS, and without forskolin or GGF, for 48 h, to rest the cells. Thereafter, 1 μM GM-284 was added for an additional 48 h. Total RNA was isolated, run on a denaturing agarose gel, transferred to a nylon filter, and hybridized with probes complimentary to either SCIP (panel a) or Brn-5 (panel b). Cyclophilin RNA was probed as a loading control.
20 μg of total RNA was prepared as previously described (Wu et al., The POU gene brn-5 is induced by neuregulin and is restricted to myelinating Schwann cells. Mol. Cell Neurosci., 17:683-95, 2001). Thereafter, total RNA was separated on 1% MOPS-formaldehyde agarose gels, transferred to MAGNA nylon transfer membrane (MSI), UV cross-linked (120 mJ/cm 2) using a UV crosslinker (FB-UVXL-1000, Fisher Biotech), and hybridized with ^32P-dCTP random-labeled (RTS RadPrime DNA Labeling System, Gibco BRL), probes purified by Sephadex G-50 column (Pharmacia, Peapack, N.J.).
The Brn-5 probe contains the rat Brn-5 coding region (generated by PCR), and was kindly provided by Dr. Bogi Andersen at the University of California at San Diego. This probe is 93% identical to the mouse Brn-5 mRNA. The SCIP probe was a 1.10-kb SmaI cDNA fragment from mouse SCIP DNA. […]

CCC(C)(C)C(=O)C(=O)N1CCC[C@H]1c1nnc([C@@H]2CCCN2C(=O)C(=O)C(C)(C)CC)o1 [GM-284]
SCIP and Brn-5 RNA expression relative to vehicle-treated cells: significantly induced; also recorded: induces Schwann cell expression of SCIP (Oct-6) and Brn-5
